Broadly, the EC50 is the concentration that produces a half-maximal response. Lower therefore signals an effect from little substance. A word on the IC50: it is the concentration that gives 50% inhibition.

Consider 10 molecules from ChEMBL document CHEMBL6134773, “Metal-free synthesis of N-fused quinazolino-quinazoline-diones as a MALAT1 RNA triple helix intercalator” (RSC Med Chem, 2025).

Data set [1] relates to DNA. In words: Binding affinity to dsDNA (unknown origin) assessed as DNA intercalation by measuring change in fluorescence intensity by fluorescence-based screening assay. It is filed as nucleic-acid assay.
The target of data set [2] is MALAT1 triple helix RNA. The data set can be described thus: Binding affinity to MALAT1 triple helix RNA (unknown origin) by fluorescence-based screening assay. The format is nucleic-acid assay.
In data set [3] the test system is MALAT1 triple helix RNA. The data set can be described thus: Binding affinity to MALAT1 triple helix RNA (unknown origin) assessed as RNA intercalation by measuring change in fluorescence intensity by fluorescence-based screening assay. The format is nucleic-acid assay.
Data set [4] concerns the target DNA. In words: Binding affinity to dsDNA (unknown origin) by fluorescence-based screening assay. The format is nucleic-acid assay.
The test system of the next data set is MCF7. The data set can be described thus: Cytotoxicity against human MCF7 cells assessed as cell viability incubated for 48 hrs. The format is functional, cell-based. The settings on record: MCF7, 48 h.
The test system of data set [5] is MALAT1 triple helix RNA. The data set can be described thus: Binding affinity to MALAT1 triple helix RNA (unknown origin) assessed as […] by measuring conformational change at 2.5 to 5.0 uM at 25 to 65 degreeC by temperature dependent CD analysis. It is filed as nucleic-acid assay. Particulars: dose 2.5-5 µM.
In a further data set the test system is L929. The data set can be described thus: Cytotoxicity against mouse L929 cells. It is filed as toxicity, cell-based.
The subject of a further data set is SK-OV-3. The data set can be described thus: Cytotoxicity against human SK-OV-3 cells. The format is functional, cell-based.
For a further data set, the system named is HeLa. The data set can be described thus: Cytotoxicity against human HeLa cells. The format is functional, cell-based.

Active and inactive are the calls of the source. The calls are words filed in the database; no cut-off is given here.

In the case of `O=c1c2ccccc2n2c(=O)c3ccccc3nc2n1Cc1cccc2ccccc12`, the deltaFI in the data set on DNA [1] stood at 0.014.
The same measure, in the same setting: then `O=c1c2ccccc2n2c(=O)c3ccccc3nc2n1Cc1ccc(OC(F)(F)F)cc1`, with 0.29; and `N#Cc1ccc(Cn2c(=O)c3ccccc3n3c(=O)c4ccccc4nc23)cc1`, with 0.172.
As to `O=c1c2ccccc2n2c(=O)c3ccccc3nc2n1Cc1cccc(C(F)(F)F)c1`, the EC50 on MALAT1 triple helix RNA [2] was 800 nM; at DNA [4], 1000 nM. Besides, the deltaFI in the data set on MALAT1 triple helix RNA [3] is 0.504; in the data set on DNA [1], 0.76.
As to `N=C(N)c1ccc(-c2ccc(-c3ccc(C(=N)N)cc3)o2)cc1` [FURAMIDINE], on MALAT1 triple helix RNA [2], a half-maximal effect (EC50) was put at 600 nM. Besides, the IC50 with MCF7 was 90000 nM.
In the case of `O=c1c2ccccc2n2c(=O)c3ccccc3nc2n1-c1ccc(C(F)(F)F)cc1`, the deltaFI in the data set on DNA [1] is 0.084.
For the molecule `O=c1c2ccccc2n2c(=O)c3ccccc3nc2n1CCCn1c(=O)c2ccccc2n2c(=O)c3ccccc3nc12`, the outcome in the data set on MALAT1 triple helix RNA [5] was Active. In addition, the EC50 on MALAT1 triple helix RNA [2] stood at 1100 nM; on DNA [4], 1400 nM. Also, the deltaFI in the data set with MALAT1 triple helix RNA [3] and with DNA [1] was 1 each time. Also, the Activity entry in the data set with L929 is recorded as “Non-toxic”. Also, the IC50 turned out to be 8000 nM in the data set with SK-OV-3 and 63200 nM in the data set on HeLa.
Regarding `O=c1c2ccccc2n2c(=O)c3ccccc3nc2n1Cc1ccc([N+](=O)[O-])cc1`, the deltaFI in the data set with DNA [1] came out at 0.079.
In the data set on SK-OV-3, `COc1cccc2c1C(=O)c1c(O)c3c(c(O)c1C2=O)C[C@@](O)(C(=O)CO)C[C@@H]3O[C@H]1C[C@H](N)[C@H](O)[C@H](C)O1` [DOXORUBICIN] registered an IC50 of 534 nM.
On to `COC(=O)c1ccc(Cn2c(=O)c3ccccc3n3c(=O)c4ccccc4nc23)cc1`, for which the deltaFI in the data set with DNA [1] came out at 0.426.
